In patent publication US9266876B2 (Actelion Pharmaceuticals Ltd., priority 2012, dated 2016):

Target: human CXCR3A (Homo sapiens (Human), UniProt P49682)
Assay: FLIPR assay
Format: cell-based
Conditions: CHO-K1 cells expressing the human CXCR3A coupled to Galpha(16); CXCL10 agonist 20 nM; Fluo-4-AM fluorescence; mean values if determined several times
Protocol: The bioactivity of compounds is tested in a fluorometric imaging plate reader (FLIPR: Molecular Devices) using engineered CHO-K1 cells expressing the human CXCR3A coupled to a G protein (Galpha(16)). Cells are plated the day prior to bioassay in F12 medium supplemented with 10% FBS and G418 and hygromycin antibiotics to maintain recombinant selection. At the day of bioassay, cells are washed and dye loaded for one hour with Fluo-4-AM (Invitrogen) in Hanks Balanced Salt Solution (Invitrogen), buffered with 20 mM Hepes at pH 7.4 and sodium bicarbonate (0.015%), containing 5 mM probenecid. […] Cells are washed free of excess dye and 60 microliter of wash buffer is added. Stock solutions of test compounds are made up at a concentration of 10 mM in DMSO, and serially diluted in dilution buffer to concentrations required for inhibition dose response curves. After a 10 minute incubation period at 37° C., 10 microliters of each compound dilution are transferred from a compound plate to the plate containing the recombinant cells in the FLIPR instrument according to the manufacturer's instructions. Following basal readings, 10 microliter CXCL10 agonist at a concentration of 20 nM (from Peprotech) is added, again using the FLIPR instrument. Changes in fluorescence are monitored before and after addition of the test compounds. Emission peak values above base level after CXCL10 addition are exported after base line subtraction. The program XLfit is used to fit the data to a single site dose response curve and to calculate IC50 values.

human CXCR3A, sequence (P49682 whole entry): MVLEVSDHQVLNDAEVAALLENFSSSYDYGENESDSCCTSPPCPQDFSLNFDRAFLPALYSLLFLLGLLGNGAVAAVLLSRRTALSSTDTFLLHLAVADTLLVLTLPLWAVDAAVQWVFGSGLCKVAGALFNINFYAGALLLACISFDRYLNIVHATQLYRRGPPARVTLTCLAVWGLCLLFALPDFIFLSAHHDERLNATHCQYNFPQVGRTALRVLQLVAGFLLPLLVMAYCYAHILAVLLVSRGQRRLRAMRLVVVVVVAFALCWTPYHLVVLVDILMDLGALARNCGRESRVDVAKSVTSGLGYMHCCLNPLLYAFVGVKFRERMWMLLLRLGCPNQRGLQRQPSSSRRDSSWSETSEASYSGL

Compound: 1-{(R)-4-[4-(1H-Benzoimidazol-2-yl)-thiazol-5-yl]-2-methoxymethyl-piperazin-1-yl}-2-pyrrolo[2,3-b]pyridin-1-yl-ethanone [Example 20]
- IC50: 69 nM

Compound: O=C(Cn1ccc(C(F)(F)F)n1)N1CCN(c2scnc2-c2nc3ccccc3[nH]2)CC1 [Example 5, 1-{4-[4-(1H-Benzoimidazol-2-yl)-thiazol-5-yl]-piperazin-1-yl}-2-(3-trifluoromethyl-pyrazol-1-yl)-ethanone]
- IC50: 33 nM

Compound: Cc1ccn(CC(=O)N2CCN(c3scnc3-c3nc4ccccc4[nH]3)CC2)n1 [Example 6, 1-{4-[4-(1H-Benzoimidazol-2-yl)-thiazol-5-yl]-piperazin-1-yl}-2-(3-methyl-pyrazol-1-yl)-ethanone]
- IC50: 130 nM

Compound: Cc1nc(CC(=O)N2CCN(c3scnc3-c3nc4ccccc4[nH]3)CC2)cs1 [Example 7, 1-{4-[4-(1H-Benzoimidazol-2-yl)-thiazol-5-yl]-piperazin-1-yl}-2-(2-methyl-thiazol-4-yl)-ethanone]
- IC50: 516 nM

Compound: O=C(Cc1cn2nc(Cl)ccc2n1)N1CCN(c2scnc2-c2nc3ccccc3[nH]2)CC1 [Example 8, 1-{4-[4-(1H-Benzoimidazol-2-yl)-thiazol-5-yl]-piperazin-1-yl}-2-(6-chloro-imidazo[1,2-b]pyridazin-2-yl)-ethanone]
- IC50: 392 nM

Compound: Cc1nc2ccccn2c1CC(=O)N1CCN(c2scnc2-c2nc3ccccc3[nH]2)CC1 [Example 9, 1-{4-[4-(1H-Benzoimidazol-2-yl)-thiazol-5-yl]-piperazin-1-yl}-2-(2-methyl-imidazo[1,2-a]pyridin-3-yl)-ethanone]
- IC50: 90 nM

Compound: Cc1nc(C)c(CC(=O)N2CCN(c3scnc3-c3nc4ccccc4[nH]3)CC2)s1 [Example 11, 1-{4-[4-(1H-Benzoimidazol-2-yl)-thiazol-5-yl]-piperazin-1-yl}-2-(2,4-dimethyl-thiazol-5-yl)-ethanone]
- IC50: 311 nM

Compound: COc1ccc2onc(CC(=O)N3CCN(c4scnc4-c4nc5ccccc5[nH]4)CC3)c2c1 [Example 12, 1-{4-[4-(1H-Benzoimidazol-2-yl)-thiazol-5-yl]-piperazin-1-yl}-2-(5-methoxy-benzo[d]isoxazol-3-yl)-ethanone]
- IC50: 314 nM

Compound: Cc1cc(C)n(CC(=O)N2CCN(c3scnc3-c3nc4ccccc4[nH]3)CC2)n1 [Example 13, 1-{4-[4-(1H-Benzoimidazol-2-yl)-thiazol-5-yl]-piperazin-1-yl}-2-(3,5-dimethyl-pyrazol-1-yl)-ethanone]
- IC50: 92 nM

Compound: C[C@@H]1CN(c2scnc2-c2nc3c(F)cccc3[nH]2)CCN1C(=O)Cn1ccc2cccnc21 [Example 21, 1-{(R)-4-[4-(4-Fluoro-1H-benzoimidazol-2-yl)-thiazol-5-yl]-2-methyl-piperazin-1-yl}-2-pyrrolo[2,3-b]pyridin-1-yl-ethanone]
- IC50: 2 nM

Compound: C[C@@H]1CN(c2scnc2-c2nc3cc(Cl)c(F)cc3[nH]2)CCN1C(=O)Cn1ccc2cccnc21 [Example 26, 1-{(R)-4-[4-(5-Chloro-6-fluoro-1H-benzoimidazol-2-yl)-thiazol-5-yl]-2-methyl-piperazin-1-yl}-2-pyrrolo[2,3-b]pyridin-1-yl-ethanone]
- IC50: 1 nM

Compound: C[C@@H]1CN(c2scnc2-c2nc3c(F)c(F)ccc3[nH]2)CCN1C(=O)Cn1ccc2cccnc21 [Example 28, 1-{(R)-4-[4-(4,5-Difluoro-1H-benzoimidazol-2-yl)-thiazol-5-yl]-2-methyl-piperazin-1-yl}-2-pyrrolo[2,3-b]pyridin-1-yl-ethanone]
- IC50: 1 nM

Compound: Cn1c(=O)n(CC(=O)N2CCN(c3scnc3-c3nc4c(Cl)cccc4[nH]3)CC2)c2ccccc21 [Example 29, 1-(2-{4-[4-(4-Chloro-1H-benzoimidazol-2-yl)-thiazol-5-yl]-piperazin-1-yl}-2-oxo-ethyl)-3-methyl-1,3-dihydro-benzoimidazol-2-one]
- IC50: 4 nM

Compound: COc1ccc2[nH]c(-c3ncsc3N3CCN(C(=O)Cn4c(=O)n(C)c5ccccc54)CC3)nc2c1 [Example 33, 1-(2-{4-[4-(5-Methoxy-1H-benzoimidazol-2-yl)-thiazol-5-yl]-piperazin-1-yl}-2-oxo-ethyl)-3-methyl-1,3-dihydro-benzoimidazol-2-one]
- IC50: 5 nM

Compound: Cn1c(=O)n(CC(=O)N2CCN(c3scnc3-c3nc4ccc(F)cc4[nH]3)CC2)c2ccccc21 [Example 34, 1-(2-{4-[4-(6-Fluoro-1H-benzoimidazol-2-yl)-thiazol-5-yl]-piperazin-1-yl}-2-oxo-ethyl)-3-methyl-1,3-dihydro-benzoimidazol-2-one]
- IC50: 10 nM

Compound: COc1cc2nc(-c3ncsc3N3CCN(C(=O)Cn4c(=O)n(C)c5ccccc54)CC3)[nH]c2cc1OC [Example 36, 1-(2-{4-[4-(5,6-Dimethoxy-1H-benzoimidazol-2-yl)-thiazol-5-yl]-piperazin-1-yl}-2-oxo-ethyl)-3-methyl-1,3-dihydro-benzoimidazol-2-one]
- IC50: 17 nM

Compound: Cc1nc(-c2nc3ccccc3[nH]2)c(N2CCN(C(=O)Cn3ccc4cccnc43)CC2)s1 [Example 40, 1-{4-[4-(1H-Benzoimidazol-2-yl)-2-methyl-thiazol-5-yl]-piperazin-1-yl}-2-pyrrolo[2,3-b]pyridin-1-yl-ethanone]
- IC50: 20 nM

Compound: O=C(Cn1ccc2cccnc21)N1CCN(c2sc(-c3ccccc3)nc2-c2nc3ccccc3[nH]2)CC1 [Example 41, 1-{4-[4-(1H-Benzoimidazol-2-yl)-2-phenyl-thiazol-5-yl]-piperazin-1-yl}-2-pyrrolo[2,3-b]pyridin-1-yl-ethanone]
- IC50: 77 nM

Compound: O=C(Cn1ccc2cccnc21)N1CCN(c2sc(Cl)nc2-c2nc3ccccc3[nH]2)CC1 [Example 42, 1-{4-[4-(1H-Benzoimidazol-2-yl)-2-chloro-thiazol-5-yl]-piperazin-1-yl}-2-pyrrolo[2,3-b]pyridin-1-yl-ethanone]
- IC50: 547 nM

Compound: O=C(Cn1cnc2cccnc21)N1CCCN(c2scnc2-c2nc3ccccc3[nH]2)CC1 [Example 45, 1-{4-[4-(1H-Benzoimidazol-2-yl)-thiazol-5-yl]-[1,4]diazepan-1-yl}-2-imidazo[4,5-b]pyridin-3-yl-ethanone]
- IC50: 48 nM

Compound: C[C@H]1CN(c2scnc2-c2nc3ccccc3[nH]2)CCN1C(=O)Cn1cnc2cccnc21 [Example 47, 1-{(S)-4-[4-(1H-Benzoimidazol-2-yl)-thiazol-5-yl]-2-methyl-piperazin-1-yl}-2-imidazo[4,5-b]pyridin-3-yl-ethanone]
- IC50: 18 nM

Compound: O=C(Cn1cnc2cccnc21)N1CCC(c2scnc2-c2nc3ccccc3[nH]2)CC1 [Example 48, 1-{4-[4-(1H-Benzoimidazol-2-yl)-thiazol-5-yl]-piperidin-1-yl}-2-imidazo[4,5-b]pyridin-3-yl-ethanone]
- IC50: 448 nM

Compound: COc1cccc2c1ccn2CC(=O)N1CCN(c2scnc2-c2nc3ccccc3[nH]2)CC1 [Example 52, 1-{4-[4-(1H-Benzoimidazol-2-yl)-thiazol-5-yl]-piperazin-1-yl}-2-(4-methoxy-indol-1-yl)-ethanone]
- IC50: 136 nM

Compound: O=C(Cn1ccc2cc(Cl)c(Cl)cc21)N1CCN(c2scnc2-c2nc3ccccc3[nH]2)CC1 [Example 53, 1-{4-[4-(1H-Benzoimidazol-2-yl)-thiazol-5-yl]-piperazin-1-yl}-2-(5,6-dichloro-indol-1-yl)-ethanone]
- IC50: 15 nM

Compound: O=C(Cn1ccc2ccc(C(F)(F)F)cc21)N1CCN(c2scnc2-c2nc3ccccc3[nH]2)CC1 [Example 54, 1-{4-[4-(1H-Benzoimidazol-2-yl)-thiazol-5-yl]-piperazin-1-yl}-2-(6-trifluoromethyl-indol-1-yl)-ethanone]
- IC50: 112 nM

Compound: O=C(Cn1ccc2ccc(F)cc21)N1CCN(c2scnc2-c2nc3ccccc3[nH]2)CC1 [Example 56, 1-{4-[4-(1H-Benzoimidazol-2-yl)-thiazol-5-yl]-piperazin-1-yl}-2-(6-fluoro-indol-1-yl)-ethanone]
- IC50: 4 nM

Compound: Cc1cc2ccccc2n1CC(=O)N1CCN(c2scnc2-c2nc3ccccc3[nH]2)CC1 [Example 58, 1-{4-[4-(1H-Benzoimidazol-2-yl)-thiazol-5-yl]-piperazin-1-yl}-2-(2-methyl-indol-1-yl)-ethanone]
- IC50: 34 nM

Compound: N#Cc1cn(CC(=O)N2CCN(c3scnc3-c3nc4ccccc4[nH]3)CC2)c2ccccc12 [Example 59, 1-(2-{4-[4-(1H-Benzoimidazol-2-yl)-thiazol-5-yl]-piperazin-1-yl}-2-oxo-ethyl)-1H-indole-3-carbonitrile]
- IC50: 4 nM

Compound: COc1cc2c(ccn2CC(=O)N2CCN(c3scnc3-c3nc4ccccc4[nH]3)CC2)cc1Cl [Example 62, 1-{4-[4-(1H-Benzoimidazol-2-yl)-thiazol-5-yl]-piperazin-1-yl}-2-(5-chloro-6-methoxy-indol-1-yl)-ethanone]
- IC50: 6 nM

Compound: Cc1cn(CC(=O)N2CCN(c3scnc3-c3nc4ccccc4[nH]3)CC2)c2ccc(F)cc12 [Example 63, 1-{4-[4-(1H-Benzoimidazol-2-yl)-thiazol-5-yl]-piperazin-1-yl}-2-(5-fluoro-3-methyl-indol-1-yl)-ethanone]
- IC50: 13 nM

Compound: O=C(Cn1c(C(F)(F)F)nc2ccccc21)N1CCN(c2scnc2-c2nc3ccccc3[nH]2)CC1 [Example 64, 1-{4-[4-(1H-Benzoimidazol-2-yl)-thiazol-5-yl]-piperazin-1-yl}-2-(2-trifluoromethyl-benzoimidazol-1-yl)-ethanone]
- IC50: 111 nM
